Where a SMILES comes first, the peptide text is derived from it. Bridges are numbered along the chain shown (N, C = ends). [ ]: non-standard residue; d: D form. The star is where a group is joined. ξ: configuration not given here. Phe(3-Ph) = N[C@@H](Cc1cccc(-c2ccccc2)c1)C(=O)O; Phe(4-COOH) = N[C@@H](Cc1ccc(C(=O)O)cc1)C(=O)O; Phe(3,5-F2) = N[C@@H](Cc1cc(F)cc(F)c1)C(=O)O; Bip = N[C@@H](Cc1ccc(-c2ccccc2)cc1)C(=O)O; Phe(4-NH2) = Nc1ccc(C[C@H](N)C(=O)O)cc1; Phe(3-F) = N[C@@H](Cc1cccc(F)c1)C(=O)O; Phe(3-Me) = Cc1cccc(C[C@H](N)C(=O)O)c1; Phe(4-F) = N[C@@H](Cc1ccc(F)cc1)C(=O)O; Ala(cPent) = N[C@@H](CC1CCCC1)C(=O)O; Dap(N3) = [N-]=[N+]=NC[C@H](N)C(=O)O; Val(3-OH) = CC(C)(O)[C@H](N)C(=O)O; 4Pal = N[C@@H](Cc1ccncc1)C(=O)O; 2Thi = N[C@@H](Cc1cccs1)C(=O)O; Cha = N[C@@H](CC1CCCCC1)C(=O)O; Cit = NC(=O)NCCC[C@H](N)C(=O)O; Thr(3ξ) = CC(O)[C@H](N)C(=O)O; Carboxymethyl = O=C(O)C*; Orn = NCCC[C@H](N)C(=O)O; Pra = C#CC[C@H](N)C(=O)O; Dab = NCC[C@H](N)C(=O)O; Dap = NC[C@H](N)C(=O)O
Biological target: T1, human PD-1 / PD-L1-Ig binding on Jurkat cell line over-expressing human PD-1 (Jurkat-PD-1) (Homo sapiens, UniProt Q15116)
T1 construct: expressed in transfected cells; host or cells: Jurkat
Experiment: Jurkat-PD-1 Cell Binding High-Content Screening Assay (CBA)
Format: cell-based
Conditions: Jurkat-PD-1 cells, PE-labeled PD-L1-Ig 20 nM final; read-out: Jurkat HPD1_PDL1 IC50
Method in brief: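 Binding of fluorescent PD-L1-Ig (phycoerythrin linked via the Ig tag, 20 nM final) to PD-1-overexpressing Jurkat cells was imaged after a 2 h, 37° C compound pretreatment and 1 hour ligand incubation.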

T1 sequence (Q15116 25-288): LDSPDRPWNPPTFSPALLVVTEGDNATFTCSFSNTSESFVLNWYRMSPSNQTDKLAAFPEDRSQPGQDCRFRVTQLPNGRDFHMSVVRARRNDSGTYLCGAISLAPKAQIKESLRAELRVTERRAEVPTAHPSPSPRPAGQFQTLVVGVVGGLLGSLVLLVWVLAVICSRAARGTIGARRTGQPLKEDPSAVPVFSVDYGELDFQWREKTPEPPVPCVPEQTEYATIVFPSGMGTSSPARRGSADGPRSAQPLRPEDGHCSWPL

IC50 [nM] | SMILES
10.9 | CC(C)C[C@H]1NC(=O)[C@H](CCCN)NC(=O)[C@H](CCCNC(N)=O)NC(=O)[C@H](Cc2ccc(-c3ccccc3)cc2)NC(=O)[C@H](CC2CCCC2)NC(=O)[C@H](Cc2c[nH]c3ccccc23)NC(=O)[C@H](CC(=O)O)NC(=O)[C@H](Cc2ccc(OCC(=O)O)cc2)NC(=O)[C@H](CN)NC(=O)CSC[C@@H](C(=O)N[C@@H](C)C(N)=O)NC(=O)[C@H]([C@@H](C)O)NC(=O)[C@H](C(C)C)NC(=O)[C@H](CC2CCCCC2)NC(=O)[C@H](CCN)NC1=O [Compound 1353] ({CH2CO}-[Dap]Y(Carboxymethyl)DW[Ala(cPent)][Bip][Cit][Orn][dL][Dab][Cha]VTCA-NH2; thioether N-14)
3 | CC(C)C[C@H]1NC(=O)[C@H](CCCN)NC(=O)[C@H](C(C)C)NC(=O)[C@H](Cc2ccc(-c3ccccc3)cc2)NC(=O)[C@H](C(C)C)NC(=O)[C@H](Cc2c[nH]c3ccccc23)NC(=O)[C@H](CC(=O)O)NC(=O)[C@H](Cc2ccc(OCC(=O)O)cc2)NC(=O)[C@H](Cc2cnc[nH]2)NC(=O)CSC[C@@H](C(=O)N[C@H](C)C(N)=O)NC(=O)[C@H](C(C)O)NC(=O)[C@H](C(C)C)NC(=O)[C@H](CC2CCCCC2)NC(=O)[C@H](CCN)NC1=O (stereo partly drawn) [Compound 2563] ({CH2CO}-HY(Carboxymethyl)DWV[Bip]V[Orn][dL][Dab][Cha]V[Thr(3ξ)]C[dA]-NH2; thioether N-14)
53.9 | CC(C)C[C@@H]1NC(=O)[C@H](CCN)NC(=O)[C@@H](CC(C)C)NC(=O)[C@H](CC(C)C)NC(=O)[C@H](C(C)C)NC(=O)[C@H](Cc2ccc(-c3ccccc3)cc2)NC(=O)[C@H](C(C)C)NC(=O)[C@H](Cc2c[nH]c3ccccc23)NC(=O)[C@H](CC(=O)O)NC(=O)[C@H](Cc2ccc(O)cc2)NC(=O)[C@H](CC(N)=O)NC(=O)CSC[C@@H](C(=O)N[C@@H](C)C(N)=O)NC(=O)[C@H]([C@@H](C)O)NC(=O)[C@H](C(C)C)NC1=O [Compound 1037] ({CH2CO}-NYDWV[Bip]VL[dL][Dab]LVTCA-NH2; thioether N-14)
124 | Cc1cccc(C[C@@H]2NC(=O)[C@H](CC(=O)O)NC(=O)[C@H](Cc3ccncc3)NC(=O)[C@H](CN)NC(=O)CSC[C@@H](C(N)=O)NC(=O)[C@H]([C@@H](C)O)NC(=O)[C@H](C(C)C)NC(=O)[C@H](CC(C)C)NC(=O)[C@H](CCN)NC(=O)[C@@H](CC(C)C)NC(=O)[C@H](CCCN)NC(=O)[C@H](CCCNC(N)=O)NC(=O)[C@H](Cc3cccc(-c4ccccc4)c3)NC(=O)[C@H](C(C)C)NC2=O)c1 [Compound 1654] ({CH2CO}-[Dap][4Pal]D[Phe(3-Me)]V[Phe(3-Ph)][Cit][Orn][dL][Dab]LVTC-NH2; thioether N-14)
14.4 | CCC(C)[C@@H]1NC(=O)[C@H](Cc2ccc(-c3ccccc3)cc2)NC(=O)[C@H](C(C)C)NC(=O)[C@H](Cc2cccc(C)c2)NC(=O)[C@H](CC(=O)O)NC(=O)[C@H](Cc2ccc(C(=O)O)cc2)NC(=O)[C@H](Cc2ccncc2)NC(=O)CSC[C@@H](C(=O)N[C@@H](CC(N)=O)C(N)=O)NC(=O)[C@H]([C@@H](C)O)NC(=O)[C@H](C(C)C)NC(=O)[C@H](CC2CCCCC2)NC(=O)[C@H](CCN)NC(=O)[C@@H](CC(C)C)NC(=O)[C@H](CCCN)NC1=O (stereo partly drawn) [Compound 2299]
15.9 | CC(C)C[C@H]1NC(=O)[C@H](CCCN)NC(=O)[C@H](CCCNC(N)=O)NC(=O)[C@H](Cc2ccc(-c3ccccc3)cc2)NC(=O)[C@H](C(C)C)NC(=O)[C@H](Cc2c[nH]c3ccccc23)NC(=O)[C@H](CC(=O)O)NC(=O)[C@H](Cc2ccc(F)cc2)NC(=O)[C@H](CN)NC(=O)CSC[C@@H](C(=O)N[C@@H](C)C(N)=O)NC(=O)[C@H]([C@@H](C)O)NC(=O)[C@H](C(C)C)NC(=O)[C@H](CC2CCCCC2)NC(=O)[C@H](CCN)NC1=O [Compound 2103] ({CH2CO}-[Dap][Phe(4-F)]DWV[Bip][Cit][Orn][dL][Dab][Cha]VTCA-NH2; thioether N-14)
59.5 | CC(C)C[C@H]1NC(=O)[C@H](CCCN)NC(=O)[C@H](CCC(=O)O)NC(=O)[C@H](Cc2ccc(-c3ccccc3)cc2)NC(=O)[C@H](C(C)C)NC(=O)[C@H](Cc2c[nH]c3ccccc23)NC(=O)[C@H](CC(=O)O)NC(=O)[C@H](Cc2cccs2)NC(=O)[C@H](Cc2ccccc2)NC(=O)CSC[C@@H](C(=O)N[C@@H](C)C(N)=O)NC(=O)[C@H]([C@@H](C)O)NC(=O)[C@H](C(C)C)NC(=O)[C@H](CC2CCCCC2)NC(=O)[C@H](CCN)NC1=O [Compound 2191] ({CH2CO}-F[2Thi]DWV[Bip]E[Orn][dL][Dab][Cha]VTCA-NH2; thioether N-14)
28.1 | CC(C)C[C@H]1NC(=O)[C@H](CCCN)NC(=O)[C@H](CCC(=O)O)NC(=O)[C@H](Cc2ccc(-c3ccccc3)cc2)NC(=O)[C@H](C(C)C)NC(=O)[C@H](Cc2c[nH]c3ccccc23)NC(=O)[C@H](CC(=O)O)NC(=O)[C@H](Cc2ccc(N)cc2)NC(=O)[C@H](CC(N)=O)NC(=O)CSC[C@@H](C(=O)N[C@@H](C)C(N)=O)NC(=O)[C@H]([C@@H](C)O)NC(=O)[C@H](C(C)C)NC(=O)[C@H](CC2CCCCC2)NC(=O)[C@H](CCN)NC1=O [Compound 2180] ({CH2CO}-N[Phe(4-NH2)]DWV[Bip]E[Orn][dL][Dab][Cha]VTCA-NH2; thioether N-14)
4.5 | Cc1cccc(C[C@@H]2NC(=O)[C@H](CC(=O)O)NC(=O)[C@H](Cc3ccc(C(=O)O)cc3)NC(=O)[C@H](C(C)O)NC(=O)CSC[C@@H](C(=O)N[C@@H](CCN)C(N)=O)NC(=O)[C@H](CO)NC(=O)[C@H](C(C)(C)O)NC(=O)[C@H](CC3CCCCC3)NC(=O)[C@H](CCN)NC(=O)[C@@H](CC(C)C)NC(=O)[C@H](CCCN)NC(=O)[C@H](Cc3ccc(OCC(=O)O)cc3)NC(=O)[C@H](Cc3ccc(-c4ccccc4)cc3)NC(=O)[C@H](Cc3ccc(C(=O)O)cc3)NC2=O)c1 (stereo partly drawn) [Compound 2635] ({CH2CO}-[Thr(3ξ)][Phe(4-COOH)]D[Phe(3-Me)][Phe(4-COOH)][Bip]Y(Carboxymethyl)[Orn][dL][Dab][Cha][Val(3-OH)]SC[Dab]-NH2; thioether N-14)
85.7 | C#CC[C@H](NC(=O)[C@@H]1CSCC(=O)N[C@@H](CN)C(=O)N[C@@H](CN=[N+]=[N-])C(=O)N[C@@H](CC(=O)O)C(=O)N[C@@H](Cc2c[nH]c3ccccc23)C(=O)N[C@@H](C(C)C)C(=O)N[C@@H](Cc2ccc(-c3ccccc3)cc2)C(=O)N[C@@H](CCC(=O)O)C(=O)N[C@@H](CCCN)C(=O)N[C@H](CC(C)C)C(=O)N[C@@H](CCN)C(=O)N[C@@H](CC2CCCCC2)C(=O)N[C@@H](C(C)C)C(=O)N[C@@H]([C@@H](C)O)C(=O)N1)C(N)=O [Compound 1539] ({CH2CO}-[Dap][Dap(N3)]DWV[Bip]E[Orn][dL][Dab][Cha]VTC[Pra]-NH2; thioether N-14)
37.2 | CC(C)C[C@H]1NC(=O)[C@H](CCCN)NC(=O)[C@H](CCCNC(N)=O)NC(=O)[C@H](Cc2ccc(-c3ccccc3)cc2)NC(=O)[C@H](C(C)C)NC(=O)[C@H](Cc2c[nH]c3ccccc23)NC(=O)[C@H](CC(=O)O)NC(=O)[C@H](Cc2cc(F)cc(F)c2)NC(=O)[C@H](CN)NC(=O)CSC[C@@H](C(=O)N[C@@H](C)C(N)=O)NC(=O)[C@H]([C@@H](C)O)NC(=O)[C@H](C(C)C)NC(=O)[C@H](CC2CCCCC2)NC(=O)[C@H](CCN)NC1=O [Compound 2131] ({CH2CO}-[Dap][Phe(3,5-F2)]DWV[Bip][Cit][Orn][dL][Dab][Cha]VTCA-NH2; thioether N-14)
50.8 | CC(C)C[C@@H]1NC(=O)[C@H](CCCCN)NC(=O)[C@@H](CC(C)C)NC(=O)[C@H](CCCN)NC(=O)[C@H](Cc2cnc[nH]2)NC(=O)[C@H](Cc2ccc(-c3ccccc3)cc2)NC(=O)[C@H](C(C)C)NC(=O)[C@H](Cc2c[nH]c3ccccc23)NC(=O)[C@H](CC(=O)O)NC(=O)[C@H](Cc2ccc(O)cc2)NC(=O)[C@H](CC(N)=O)NC(=O)CSC[C@@H](C(=O)NCC(N)=O)NC(=O)[C@H]([C@@H](C)O)NC(=O)[C@H](C(C)C)NC1=O [Compound 1136] ({CH2CO}-NYDWV[Bip]H[Orn][dL]KLVTCG-NH2; thioether N-14)
11 | CC(C)C[C@@H]1NC(=O)[C@H](CC(N)=O)NC(=O)[C@@H](CC(C)C)NC(=O)[C@H](CN)NC(=O)[C@H](C(C)C)NC(=O)[C@H](Cc2ccc(-c3ccccc3)cc2)NC(=O)[C@H](C(C)C)NC(=O)[C@H](Cc2c[nH]c3ccccc23)NC(=O)[C@H](CC(=O)O)NC(=O)[C@H](Cc2ccc(OCC(=O)O)cc2)NC(=O)[C@H](CN)NC(=O)CSC[C@@H](C(=O)NCC(N)=O)NC(=O)[C@H](CO)NC(=O)[C@H](C(C)C)NC1=O [Compound 1289] ({CH2CO}-[Dap]Y(Carboxymethyl)DWV[Bip]V[Dap][dL]NLVSCG-NH2; thioether N-14)
32.3 | CCCC[C@H]1NC(=O)[C@H](CCCN)NC(=O)[C@H](CCCNC(N)=O)NC(=O)[C@H](Cc2ccc(-c3ccccc3)cc2)NC(=O)[C@H](C(C)C)NC(=O)[C@H](Cc2c[nH]c3ccccc23)NC(=O)[C@H](CC(=O)O)NC(=O)[C@H](Cc2ccc(OCC(=O)O)cc2)NC(=O)[C@H](Cc2ccc(OCC(=O)O)cc2)NC(=O)CSC[C@@H](C(=O)N[C@@H](C)C(N)=O)NC(=O)[C@H]([C@@H](C)O)NC(=O)[C@H](C(C)C)NC(=O)[C@H](CC2CCCCC2)NC(=O)[C@H](CCN)NC1=O [Compound 1698]
18.8 | CC(C)C[C@H]1NC(=O)[C@H](CCCN)NC(=O)[C@H](CCCNC(N)=O)NC(=O)[C@H](Cc2ccc(-c3ccccc3)cc2)NC(=O)[C@H](C(C)C)NC(=O)[C@H](Cc2c[nH]c3ccccc23)NC(=O)[C@H](CC(=O)O)NC(=O)[C@H](Cc2cccc(F)c2)NC(=O)[C@H](CN)NC(=O)CSC[C@@H](C(=O)N[C@@H](C)C(N)=O)NC(=O)[C@H]([C@@H](C)O)NC(=O)[C@H](C(C)C)NC(=O)[C@H](CC2CCCCC2)NC(=O)[C@H](CCN)NC1=O [Compound 2097] ({CH2CO}-[Dap][Phe(3-F)]DWV[Bip][Cit][Orn][dL][Dab][Cha]VTCA-NH2; thioether N-14)

— patent US20250163104A1, “MACROCYCLIC IMMUNOMODULATORS” (priority 2021, published 2025)
